Laboratory results published in patent US20230416237A1, “AMIDE COMPOUND, PHARMACEUTICAL COMPOSITION AND USE THEREOF” (SHENZHEN BO LI JIAN MEDICINE CO., LTD., priority 2020, published 2023).

Experiments:
JAK2 = JAK2 (Homo sapiens (Human), UniProt O60674); assay: JAK2 inhibitory activity, mobility shift assay, 1 mM ATP; assay type: biochemical; settings: Table 7
Protocol: (§1) The JAK1 inhibitory activity and the JAK2 inhibitory activity of the amide compounds provided in the above examples were tested by the method below.
(§2) Specific steps are described below. • 1. A 1× Kinase buffer was formulated. • 2. Concentration gradients of the compound were formulated: a test compound with an initial concentration of 10000 nM (JAK1) or 30000 nM (JAK2) was diluted in a 384-well plate to a 100% DMSO solution with a 100-fold final concentration, wherein the compound was diluted by a fold of 3 to 10 concentrations. 250 nL of the compound with the 100-fold final concentration was transferred with a dispenser Echo 550 to the target plate. • 3. A kinase solution with a 2.5-fold final concentration was prepared with the 1× Kinase buffer. • 4. […] The plate was centrifuged at 1000 rpm for 30 s, shaken and uniformly mixed, and incubated for 10 min at room temperature. • 6. A mixed solution of ATP (the final concentration of ATP=1 mM) and Kinase substrate with a 5/3-fold final concentration was formulated with the 1× Kinase buffer. • 7. 15 μL of the mixed solution of ATP and the substrate with the 5/3-fold final concentration was added to initiate the reaction. • 8. The 384-well plate was centrifuged at 1000 rpm for 30 s, shaken and uniformly mixed, and incubated for respective times at room temperature. • 9. The kinase reaction was stopped by adding 30 μL of a detection termination solution, and the plate was centrifuged at 1000 rpm for 30 s and shaken and uniformly mixed. • 10. The conversion rate was read with Caliper EZ Reader and the half maximal inhibitory concentration (IC50) was calculated.

JAK1 = JAK1 (Homo sapiens (Human), UniProt P23458); assay: JAK1 inhibitory activity, mobility shift assay, 1 mM ATP; assay type: biochemical; settings: 1 mM ATP; Table 7
JAK1, sequence (P23458 850-1154): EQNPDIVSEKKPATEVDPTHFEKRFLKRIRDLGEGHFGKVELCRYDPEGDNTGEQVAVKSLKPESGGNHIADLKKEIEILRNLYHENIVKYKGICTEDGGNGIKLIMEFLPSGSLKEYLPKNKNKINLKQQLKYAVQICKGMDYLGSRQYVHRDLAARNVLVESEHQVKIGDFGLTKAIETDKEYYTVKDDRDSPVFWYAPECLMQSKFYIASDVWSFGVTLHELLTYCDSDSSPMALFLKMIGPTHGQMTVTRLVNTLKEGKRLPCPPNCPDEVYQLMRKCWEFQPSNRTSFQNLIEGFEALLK
Protocol: as §1, §2

JAK2, sequence (O60674 826-1132): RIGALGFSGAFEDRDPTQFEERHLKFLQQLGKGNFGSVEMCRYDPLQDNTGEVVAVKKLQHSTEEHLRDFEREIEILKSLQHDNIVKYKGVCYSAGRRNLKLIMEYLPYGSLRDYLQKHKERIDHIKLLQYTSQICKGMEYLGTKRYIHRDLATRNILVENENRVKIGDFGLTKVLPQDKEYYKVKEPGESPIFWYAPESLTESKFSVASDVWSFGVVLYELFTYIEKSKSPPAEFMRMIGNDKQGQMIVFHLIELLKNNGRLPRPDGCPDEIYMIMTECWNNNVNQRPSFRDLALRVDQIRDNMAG

| IC50 (JAK2) | IC50 (JAK1) | Structure (SMILES) |
| --- | --- | --- |
| 5000 nM | 51 nM | COc1nn(C)cc1Nc1ncc(F)c(-c2c[nH]c3c(NC(=O)[C@H]4C[C@H](OC)CN4C4CCNCC4)cccc23)n1 [Example 9, (2R,4S)-N-(3-(5-fluoro-2-((3-methoxy-1-methyl-1H-pyrazol-4-yl)amino)pyrimidin-4-yl)-1H-indol-7-yl)-4-methoxy-1-(piperidin-4-yl)pyrrolidine-2-carboxamide] |
| 14600 nM | 104 nM | COc1nn(C)cc1Nc1ncc(F)c(-c2c[nH]c3c(NC(=O)[C@H]4CCCN4C4CCN(C)CC4)cccc23)n1 [Example 10, (R)-N-(3-(5-fluoro-2-((3-methoxy-1-methyl-1H-pyrazol-4-yl)amino)pyrimidin-4-yl)-1H-indol-7-yl)-1-(1-methylpiperidin-4-yl)pyrrolidine-2-carboxamide] |
| 12100 nM | 69 nM | COc1nn(C)cc1Nc1ncc(C)c(-c2c[nH]c3c(NC(=O)[C@H]4CCCN4C4CCN(C)CC4)cccc23)n1 [Example 11, (R)-N-(3-(2-((3-methoxy-1-methyl-1H-pyrazol-4-yl)amino)-5-methylpyrimidin-4-yl)-1H-indol-7-yl)-1-(1-methylpiperidin-4-yl)pyrrolidine-2-carboxamide] |
| 12000 nM | 103 nM | CCO[C@H]1C[C@H](C(=O)Nc2cccc3c(-c4nc(Nc5cn(C)nc5OC)ncc4C)c[nH]c23)N(C2CCN(C)CC2)C1 [Example 12, (2R,4S)-4-ethoxy-N-(3-(2-((3-methoxy-1-methyl-1H-pyrazol-4-yl)amino)-5-methylpyrimidin-4-yl)-1H-indol-7-yl)-1-(1-methylpiperidin-4-yl)pyrrolidine-2-carboxamide] |
| 14500 nM | 101 nM | COc1nn(C)cc1Nc1ncc(C)c(-c2c[nH]c3c(NC(=O)[C@H]4C[C@H](OC)CN4C4CCN(C)CC4)cccc23)n1 [Example 13, (2R,4S)-4-methoxy-N-(3-(2-((3-methoxy-1-methyl-1H-pyrazol-4-yl)amino)-5-methylpyrimidin-4-yl)-1H-indol-7-yl)-1-(1-methylpiperidin-4-yl)pyrrolidine-2-carboxamide] |
| 6620 nM | 41 nM | COc1nn(C)cc1Nc1ncc(C)c(-c2c[nH]c3c(NC(=O)[C@H]4C[C@H](F)CN4C4CCN(C)CC4)cccc23)n1 [Example 14, (2R,4S)-4-fluoro-N-(3-(2-((3-methoxy-1-methyl-1H-pyrazol-4-yl)amino)-5-methylpyrimidin-4-yl)-1H-indol-7-yl)-1-(1-methylpiperidin-4-yl)pyrrolidine-2-carboxamide] |
| 3640 nM | 27 nM | COc1nn(C)cc1Nc1ncc(Cl)c(-c2c[nH]c3c(NC(=O)[C@H]4CCCN4C4CCN(C)CC4)cccc23)n1 [Example 15, (R)-N-(3-(5-chloro-2-((3-methoxy-1-methyl-1H-pyrazol-4-yl)amino)pyrimidin-4-yl)-1H-indol-7-yl)-1-(1-methylpiperidin-4-yl)pyrrolidine-2-carboxamide] |
| 3340 nM | 40 nM | COc1nn(C)cc1Nc1ncc(C)c(-c2c[nH]c3c(NC(=O)[C@H]4CC(F)(F)CN4C4CCN(C)CC4)cccc23)n1 [Example 16, (R)-4,4-difluoro-N-(3-(2-((3-methoxy-1-methyl-1H-pyrazol-4-yl)amino)-5-methylpyrimidin-4-yl)-1H-indol-7-yl)-1-(1-methylpiperidin-4-yl)pyrrolidine-2-carboxamide] |
| 10500 nM | 216 nM | COc1nn(C)cc1Nc1nccc(-c2c[nH]c3c(NC(=O)[C@H]4CC(F)(F)CN4C4CCN(C)CC4)cccc23)n1 [Example 17, (R)-4,4-difluoro-N-(3-(2-((3-methoxy-1-methyl-1H-pyrazol-4-yl)amino)pyrimidin-4-yl)-1H-indol-7-yl)-1-(1-methylpiperidin-4-yl)pyrrolidine-2-carboxamide] |
| 7280 nM | 46 nM | COc1nn(C)cc1Nc1ncc(F)c(-c2c[nH]c3c(NC(=O)[C@H]4CCCN4[C@@H]4CCNC4)cccc23)n1 [Example 22, (2R,3′R)-N-(3-(5-fluoro-2-((3-methoxy-1-methyl-1H-pyrazol-4-yl)amino)pyrimidin-4-yl)-1H-indol-7-yl)-[1,3′-bipyrrolidine]-2-carboxamide] |
| 5370 nM | 59 nM | COc1nn(C)cc1Nc1ncc(F)c(-c2c[nH]c3c(NC(=O)[C@H]4CCCN4[C@H]4CCNC4)cccc23)n1 [Example 23, (2R,3′S)-N-(3-(5-fluoro-2-((3-methoxy-1-methyl-1H-pyrazol-4-yl)amino)pyrimidin-4-yl)-1H-indol-7-yl)-[1,3′-bipyrrolidine]-2-carboxamide] |
| 14600 nM | 40 nM | COc1nn(C)cc1Nc1ncc(F)c(-c2c[nH]c3c(NC(=O)[C@H]4CCCN4[C@@H]4CCN(C)C4)cccc23)n1 [Example 24, (2R,3′R)-N-(3-(5-fluoro-2-((3-methoxy-1-methyl-1H-pyrazol-4-yl)amino)pyrimidin-4-yl)-1H-indol-7-yl)-1′-methyl-[1,3′-bipyrrolidine]-2-carboxamide] |
| 12400 nM | 68 nM | COc1nn(C)cc1Nc1ncc(F)c(-c2c[nH]c3c(NC(=O)[C@H]4CCCN4[C@H]4CCN(C)C4)cccc23)n1 [Example 25, (2R,3′S)-N-(3-(5-fluoro-2-((3-methoxy-1-methyl-1H-pyrazol-4-yl)amino)pyrimidin-4-yl)-1H-indol-7-yl)-1′-methyl-[1,3′-bipyrrolidine]-2-carboxamide] |
| 5490 nM | 48 nM | COc1nn(C)cc1Nc1ncc(F)c(-c2c[nH]c3c(NC(=O)[C@H]4CC(F)(F)CN4[C@@H]4CCN(C)C4)cccc23)n1 [Example 26, (2R,3′R)-4,4-difluoro-N-(3-(5-fluoro-2-((3-methoxy-1-methyl-1H-pyrazol-4-yl)amino)pyrimidin-4-yl)-1H-indol-7-yl)-1′-methyl-[1,3′-bipyrrolidine]-2-carboxamide] |
| 4400 nM | 60 nM | COc1nn(C)cc1Nc1ncc(F)c(-c2c[nH]c3c(NC(=O)[C@H]4CC(F)(F)CN4[C@H]4CCN(C)C4)cccc23)n1 [Example 27, (2R,3′S)-4,4-difluoro-N-(3-(5-fluoro-2-((3-methoxy-1-methyl-1H-pyrazol-4-yl)amino)pyrimidin-4-yl)-1H-indol-7-yl)-1′-methyl-[1,3′-bipyrrolidine]-2-carboxamide] |
| 16300 nM | 40 nM | COc1nn(C)cc1Nc1ncc(C)c(-c2c[nH]c3c(NC(=O)[C@H]4CCCN4[C@@H]4CCN(C)C4)cccc23)n1 [Example 28, (2R,3′R)-N-(3-(2-((3-methoxy-1-methyl-1H-pyrazol-4-yl)amino)-5-methylpyrimidin-4-yl)-1H-indol-7-yl)-1′-methyl-[1,3′-bipyrrolidine]-2-carboxamide] |
| 13400 nM | 67 nM | COc1nn(C)cc1Nc1ncc(C)c(-c2c[nH]c3c(NC(=O)[C@H]4CCCN4[C@H]4CCN(C)C4)cccc23)n1 [Example 29, (2R,3′S)-N-(3-(2-((3-methoxy-1-methyl-1H-pyrazol-4-yl)amino)-5-methylpyrimidin-4-yl)-1H-indol-7-yl)-1′-methyl-[1,3′-bipyrrolidine]-2-carboxamide] |
| 11900 nM | 92 nM | COc1nn(C)cc1Nc1ncc(C)c(-c2c[nH]c3c(NC(=O)[C@H]4C[C@H](F)CN4[C@H]4CCN(C)C4)cccc23)n1 [Example 31, (2R,3′S,4S)-4-fluoro-N-(3-(2-((3-methoxy-1-methyl-1H-pyrazol-4-yl)amino)-5-methylpyrimidin-4-yl)-1H-indol-7-yl)-1′-methyl-[1,3′-bipyrrolidine]-2-carboxamide] |
| 3430 nM | 39 nM | COc1nn(C)cc1Nc1ncc(C)c(-c2c[nH]c3c(NC(=O)[C@H]4CC(F)(F)CN4[C@H]4CCN(C)C4)cccc23)n1 [Example 33, (2R,3′S)-4,4-difluoro-N-(3-(2-((3-methoxy-1-methyl-1H-pyrazol-4-yl)amino)-5-methylpyrimidin-4-yl)-1H-indol-7-yl)-1′-methyl-[1,3′-bipyrrolidine]-2-carboxamide] |
| 2510 nM | 161 nM | COc1nn(C)cc1Nc1ncc(C)c(-c2c[nH]c3c(NC(=O)[C@H]4CC(F)(F)CN4[C@@H]4CCOC4)cccc23)n1 [Example 34, (R)-4,4-difluoro-N-(3-(2-((3-methoxy-1-methyl-1H-pyrazol-4-yl)amino)-5-methylpyrimidin-4-yl)-1H-indol-7-yl)-1-((R)-tetrahydrofuran-3-yl)pyrrolidine-2-carboxamide] |
| 1890 nM | 115 nM | COc1nn(C)cc1Nc1ncc(C)c(-c2c[nH]c3c(NC(=O)[C@H]4CC(F)(F)CN4[C@H]4CCOC4)cccc23)n1 [Example 35, (R)-4,4-difluoro-N-(3-(2-((3-methoxy-1-methyl-1H-pyrazol-4-yl)amino)-5-methylpyrimidin-4-yl)-1H-indol-7-yl)-1-((S)-tetrahydrofuran-3-yl)pyrrolidine-2-carboxamide] |
| 12000 nM | 91 nM | COc1nn(C)cc1Nc1nccc(-c2c[nH]c3c(NC(=O)[C@H]4CC(F)(F)CN4[C@@H]4CCN(C)C4)cccc23)n1 [Example 36, (2R,3′R)-4,4-difluoro-N-(3-(2-((3-methoxy-1-methyl-1H-pyrazol-4-yl)amino)pyrimidin-4-yl)-1H-indol-7-yl)-1′-methyl-[1,3′-bipyrrolidine]-2-carboxamide] |
